Experimental data taken from patent US12503471B2, “Triazatricycle compounds for the treatment of autoimmune disease” (Hoffmann-La Roche Inc., priority 2019, dated 2025).
pIC50: −log10 of the molar value.

Target: T1, hERG channel (Homo sapiens, UniProt Q12809)
T1 construct: expressed in transfected cells; host or cells: CHO (Chinese hamster ovary)
Test: hERG channel inhibition assay
Assay type: cell-based
Conditions: whole-cell patch-clamp; for pIC50: CHO cells expressing hERG; for IC20: human, CHO cells stably expressing hERG
Method: hERG Channel Inhibition Assay
The hERG K^+ channels were cloned in humans and stably expressed in a CHO (Chinese hamster ovary) cell line. CHOhERG cells were used for patch-clamp (voltage-clamp, whole-cell) experiments. Cells were stimulated by a voltage pattern to activate hERG channels and conduct IKhERG Currents (rapid delayed outward rectifier potassium current of the hERG channel). After the cells were stabilized for a few minutes, the amplitude and kinetics of IKhERG were recorded at a stimulation frequency of 0.1 Hz (6 bpm). Thereafter, the test compound was added to the preparation at increasing concentrations. For each concentration, an attempt was made to reach a steady-state effect, usually, this was achieved within 3-10 min at which time the next highest concentration was applied. The amplitude and kinetics of IKhERG are recorded in each concentration of the drug which were compared to the control values (taken as 100%). (references: Redfern W S, Carlsson L, Davis A S, Lynch W G, MacKenzie I, Palethorpe S, Siegl P K, Strang I, Sullivan A T, Wallis R, Camm A J, Hammond T G. 2003; Relationships between preclinical cardiac electrophysiology, clinical Q T interval prolongation and torsade de pointes for a broad range of drugs: evidence for a provisional safety margin in drug development. Cardiovasc. Res. 58:32-45, Sanguinetti M C, Tristani-Firouzi M. 2006; hERG potassium channels and cardiac arrhythmia. Nature 440:463-469, Webster R, Leishman D, Walker D. 2002; Towards a drug concentration effect relationship for QT prolongation and torsades de pointes. Curr. Opin. Drug Discov. Devel. 5:116-26).

T1 sequence (Q12809 whole entry): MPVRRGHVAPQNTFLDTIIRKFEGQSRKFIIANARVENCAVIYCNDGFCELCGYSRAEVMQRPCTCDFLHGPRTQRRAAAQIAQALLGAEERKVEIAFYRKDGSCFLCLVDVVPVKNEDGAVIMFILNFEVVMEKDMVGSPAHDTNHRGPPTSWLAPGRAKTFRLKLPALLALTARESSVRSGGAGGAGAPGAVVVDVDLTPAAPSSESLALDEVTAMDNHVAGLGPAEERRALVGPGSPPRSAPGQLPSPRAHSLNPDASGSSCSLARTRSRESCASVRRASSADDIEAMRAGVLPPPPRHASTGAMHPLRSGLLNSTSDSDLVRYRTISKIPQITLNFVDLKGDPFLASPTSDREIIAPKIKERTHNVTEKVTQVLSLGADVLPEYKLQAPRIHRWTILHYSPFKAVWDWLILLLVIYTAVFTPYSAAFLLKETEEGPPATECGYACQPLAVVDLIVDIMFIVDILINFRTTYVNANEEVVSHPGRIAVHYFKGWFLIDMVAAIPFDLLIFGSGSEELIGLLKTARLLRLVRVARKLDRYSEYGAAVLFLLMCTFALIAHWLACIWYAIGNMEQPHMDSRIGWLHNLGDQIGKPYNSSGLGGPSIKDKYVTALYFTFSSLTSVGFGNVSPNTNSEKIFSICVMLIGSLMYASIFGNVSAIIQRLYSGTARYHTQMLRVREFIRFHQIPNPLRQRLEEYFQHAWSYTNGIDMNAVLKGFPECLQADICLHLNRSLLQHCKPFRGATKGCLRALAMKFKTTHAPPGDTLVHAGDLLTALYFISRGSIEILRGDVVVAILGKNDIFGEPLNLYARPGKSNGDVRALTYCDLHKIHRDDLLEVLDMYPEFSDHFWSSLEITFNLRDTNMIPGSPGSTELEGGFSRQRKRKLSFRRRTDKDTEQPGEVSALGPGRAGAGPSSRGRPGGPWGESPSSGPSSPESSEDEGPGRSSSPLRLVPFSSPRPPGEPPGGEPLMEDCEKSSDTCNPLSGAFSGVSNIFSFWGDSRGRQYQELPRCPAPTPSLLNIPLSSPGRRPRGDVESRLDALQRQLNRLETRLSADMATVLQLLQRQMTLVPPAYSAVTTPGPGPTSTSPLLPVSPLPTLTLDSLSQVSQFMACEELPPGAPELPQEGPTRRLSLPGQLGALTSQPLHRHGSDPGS

`[2H]c1ccc2c(N3C[C@@H](C)N4Cc5nc(N6CCC7(CNC7)C6)ccc5[C@H]4C3)ccc(C#N)c2n1` [Example 9, 2-Deuterio-5-[(2S,6R)-11-(2,6-diazaspiro[3.4]octan-6-yl)-6-methyl-4,7,10-triazatricyclo[7.4.0.02,7]trideca-1(9),10,12-trien-4-yl]quinoline-8-carbonitrile] gave a pIC50 of less than 4.70 and an IC20 greater than 10 µM.

`[2H]c1ccc2c(N3C[C@@H](C)N4Cc5nc(N6CC[C@](C)(N)C6)ccc5[C@H]4C3)ccc(C#N)c2n1` [Example 8, 5-[(2S,6R)-11-[(3S)-3-amino-3-methyl-pyrrolidin-1-yl]-6-methyl-4,7,10-triazatricyclo[7.4.0.02,7]trideca-1(9),10,12-trien-4-yl]-2-deuterio-quinoline-8-carbonitrile] showed a pIC50 of less than 4.70 and an IC20 of 5.5 µM.

`[2H]c1ccc2c(N3C[C@@H](C)N4Cc5nc(N6CC[C@@](C)(N)C6)ccc5[C@H]4C3)ccc(C#N)c2n1` [Example 7, 5-[(2S,6R)-11-[(3R)-3-amino-3-methyl-pyrrolidin-1-yl]-6-methyl-4,7,10-triazatricyclo[7.4.0.02,7]trideca-1(9),10,12-trien-4-yl]-2-deuterio-quinoline-8-carbonitrile] showed a pIC50 of less than 4.70 and an IC20 greater than 10 µM.

`C[C@@H]1CN(c2ccc(C#N)c3ncccc23)C[C@@H]2c3ccc(N4CC5CNCC(C4)O5)nc3CN12` [Example 6, 5-[(2S,6R)-6-methyl-11-(9-oxa-3,7-diazabicyclo[3.3.1]nonan-3-yl)-4,7,10-triazatricyclo[7.4.0.02,7]trideca-1(9),10,12-trien-4-yl]quinoline-8-carbonitrile] was tested, and the pIC50 was less than 4.70 and the IC20 was greater than 10 µM.

`C[C@@H]1CN(c2ccc(C#N)c3ncccc23)C[C@@H]2c3ccc(N4CCCNCC4)nc3CN12` [Example 20, 5-[(2S,6R)-11-(1,4-diazepan-1-yl)-6-methyl-4,7,10-triazatricyclo[7.4.0.02,7]trideca-1(9),10,12-trien-4-yl]quinoline-8-carbonitrile] was tested, and the pIC50 was less than 4.70 and the IC20 was greater than 10 µM.

Molecule `[2H]c1ccc2c(N3C[C@@H](C)N4Cc5nc(N6C[C@H]7C[C@@H]6CN7)ccc5[C@H]4C3)ccc(C#N)c2n1` [Example 17, 2-Deuterio-5-[(2S,6R)-11-[(1R,4R)-2,5-diazabicyclo[2.2.1]heptan-2-yl]-6-methyl-4,7,10-triazatricyclo[7.4.0.02,7]trideca-1(9),10,12-trien-4-yl]quinoline-8-carbonitrile] has a pIC50 of less than 4.70 and an IC20 greater than 10 µM.
